# How the values were obtained:
# mGluR2 [1] = molecular target: T1, mGluR2 (Rattus norvegicus, UniProt P31421); assay: In vitro autoradiography binding on normal female Wistar rat brain sections
# T1 construct: horizontal sections of mGluR2 KO and WT mouse brain and of normal female Wistar rat brain; from tissue; host or cells: normal female Wistar rat brain sections, 20 µm
# Description: (§1) In vitro autoradiography studies were performed on horizontal sections of mGluR2 KO and WT mouse brain and of normal female Wistar rat brain (20 μm). The sections were preincubated in 50 mM Tris-HCl (MgCl2 2 mM, CaCl2 2 mM; pH 7.0) for 10 min (two times) at room temperature and dried. Next, the brain sections were incubated with tracer [^11C]-2, [^11C]-5, [^11C]-4, [^11C]-1 or [^18F]-3 diluted in the same Tris-HCl buffer as used for the preincubation additionally containing 0.1% BSA or with this tracer solution in the presence of 10 μM Co. No. 2 or Co. No. 1. The mouse brain sections were incubated with 17 kBq of carbon-11 labeled tracer and 1.7 kBq of fluorine-18 labeled tracer. For the rat brain sections this was 44 kBq of carbon-11 labeled tracer and 0.44 kBq of fluorine-18 labeled tracer. After 30 min of incubation, the brain sections were washed three times for 5 min in ice-cold Tris-HCl 50 mM ((MgCl2 2 mM, CaCl2 2 mM; pH 7.0+0.1% BSA buffer). After a quick dip in purified ice-cold water, the slides were dried. Autoradiograms were obtained by exposing the slides overnight to a high-performance phosphor storage screen (super-resolution screen; Perkin Elmer, Waltham, USA). The screens were read using a Cyclone Plus system (Perkin Elmer) and analysed using Optiquant software (Perkin Elmer). The radioactivity concentration in the autoradiograms was expressed in digital light units (DLU)/mm^2.
# (§2) To obtain additional information on the specificity of the tracer binding to mGluR2, in vitro autoradiography binding studies were performed on mGluR2 KO and WT mouse brain sections and on normal rat brain sections in presence or absence of a high concentration of mGluR2 NAM compounds (Co. No. 1 or Co. No. 2).
# mGluR2 [2] = molecular target: T2, mGluR2 (Mus musculus, UniProt Q14BI2); assay: In vitro autoradiography binding on mGluR2 KO and WT mouse brain sections
# T2 construct: horizontal sections of mGluR2 KO and WT mouse brain and of normal female Wistar rat brain; from tissue; host or cells: mouse brain sections (WT and mGluR2 KO), 20 µm
# T2 sequence (Q14BI2 19-872): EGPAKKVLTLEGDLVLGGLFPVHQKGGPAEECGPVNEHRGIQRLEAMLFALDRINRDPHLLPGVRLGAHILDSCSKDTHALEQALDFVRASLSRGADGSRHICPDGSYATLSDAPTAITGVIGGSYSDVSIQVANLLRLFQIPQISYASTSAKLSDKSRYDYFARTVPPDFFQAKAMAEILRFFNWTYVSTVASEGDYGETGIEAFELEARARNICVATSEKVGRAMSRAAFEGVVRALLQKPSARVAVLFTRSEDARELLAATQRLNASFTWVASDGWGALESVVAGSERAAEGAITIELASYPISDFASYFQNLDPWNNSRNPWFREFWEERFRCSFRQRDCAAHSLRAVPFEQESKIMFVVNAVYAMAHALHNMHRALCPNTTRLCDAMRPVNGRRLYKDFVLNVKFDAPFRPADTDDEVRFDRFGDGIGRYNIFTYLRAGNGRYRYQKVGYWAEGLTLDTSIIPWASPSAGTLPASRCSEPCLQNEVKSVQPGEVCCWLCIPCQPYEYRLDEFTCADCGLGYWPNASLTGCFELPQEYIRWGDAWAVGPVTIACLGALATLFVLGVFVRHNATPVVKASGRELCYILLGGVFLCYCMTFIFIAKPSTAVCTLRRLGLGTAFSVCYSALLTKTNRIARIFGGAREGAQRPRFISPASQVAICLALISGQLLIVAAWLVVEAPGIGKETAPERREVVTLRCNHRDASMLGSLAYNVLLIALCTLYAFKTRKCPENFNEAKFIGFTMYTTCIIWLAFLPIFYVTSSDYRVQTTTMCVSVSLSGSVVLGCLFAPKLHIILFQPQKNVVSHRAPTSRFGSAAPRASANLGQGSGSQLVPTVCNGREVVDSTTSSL
# Description: as §1, §2
# [3] = self-blocking or blocking with Co. No. 1 (10 μM)
# [4] = WT mouse cortex, block with 10 μM Co. No. 1
# [5] = WT mouse striatum, block with 10 μM Co. No. 1
# T1 sequence (P31421 19-872): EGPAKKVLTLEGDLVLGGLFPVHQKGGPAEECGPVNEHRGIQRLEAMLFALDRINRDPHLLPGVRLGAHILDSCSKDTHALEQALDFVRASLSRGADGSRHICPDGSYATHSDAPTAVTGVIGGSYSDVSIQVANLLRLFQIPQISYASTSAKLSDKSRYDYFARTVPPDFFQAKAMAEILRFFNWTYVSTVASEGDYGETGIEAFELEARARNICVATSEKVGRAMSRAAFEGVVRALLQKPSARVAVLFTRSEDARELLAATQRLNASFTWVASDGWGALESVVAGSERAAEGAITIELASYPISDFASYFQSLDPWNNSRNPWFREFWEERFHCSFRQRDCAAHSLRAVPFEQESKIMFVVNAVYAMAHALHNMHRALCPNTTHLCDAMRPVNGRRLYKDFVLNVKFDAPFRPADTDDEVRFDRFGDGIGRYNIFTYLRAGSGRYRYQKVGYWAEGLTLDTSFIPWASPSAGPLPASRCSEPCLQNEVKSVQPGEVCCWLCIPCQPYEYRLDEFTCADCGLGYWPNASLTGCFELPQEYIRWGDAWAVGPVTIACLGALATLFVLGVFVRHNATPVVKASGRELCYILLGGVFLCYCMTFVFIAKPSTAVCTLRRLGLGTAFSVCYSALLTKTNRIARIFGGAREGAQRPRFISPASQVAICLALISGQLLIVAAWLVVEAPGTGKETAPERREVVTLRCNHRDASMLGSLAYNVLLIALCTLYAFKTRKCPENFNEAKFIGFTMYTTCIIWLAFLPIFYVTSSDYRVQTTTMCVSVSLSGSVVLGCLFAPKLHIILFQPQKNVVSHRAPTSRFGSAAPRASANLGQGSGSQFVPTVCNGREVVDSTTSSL
smiles,measurement,setting,value
C[C@H]1CN(c2ccc(C(F)(F)F)cc2)C(=O)c2c(-c3ccnc(N[11CH3])c3)cnn21 [[^11C]-2],total binding to normal rat brain sections,mGluR2 [1]; in words,high binding
same,decrease in binding in rat cortex,mGluR2 [1]; [3],~91%
same,decrease in binding in rat striatum,mGluR2 [1]; [3],~78%
same,Cortex WT (TB)/cortex WT (block Co. No. 1),mGluR2 [2]; [4],~6.7
same,"spec binding, cortex WT",mGluR2 [2]; [4],(~85% spec
same,Striatum WT (TB)/striatum WT (block Co. No. 1),mGluR2 [2]; [5],~8.3
same,"spec binding, striatum WT",mGluR2 [2]; [5],(~88% spec
same,difference in tracer binding to WT and mGluR2 KO mouse brain sections,mGluR2 [2]; in words,significant difference
same,Cortex WT (TB)/Cortex KO (TB),"mGluR2 [2]; total binding ratio, WT versus mGluR2 KO mouse brain sections, cortex",~8.1
same,Striatum WT (TB)/Striatum KO (TB),"mGluR2 [2]; total binding ratio, WT versus mGluR2 KO mouse brain sections, striatum",~4.8

# Reference: patent US10967078B2, “Radiolabelled mGluR2 PET ligands” (Janssen Pharmaceutica NV, priority 2014, dated 2021)
